Measured values published in patent publication US12644886B2, “Biosensor microarray compositions and methods” (Arizona Board of Regents on Behalf of Arizona State …, priority 2013, dated 2026).

Target: Src kinase (Homo sapiens, UniProt P12931)
Assay: FET biosensor detection of Src kinase auto-phosphorylation (phosphokinase activity)
Type: biochemical
From the text: FIG. 6 FET Biosensor detection of phosphokinase activity.
In some embodiments the biosensor microarray is used to quantify kinetic rates of interaction between one or more analytes in a test sample and the corresponding detector polypeptides. In other embodiments, the biosensor microarray is used to assess inhibition of a protein activity or a protein-protein interaction. For example, where the detector polypeptide is a protein kinase substrate or a kinase with autophosphorylation activity, phosphokinase activity can be detected in the presence or absence of a known or putative inhibitor of the specific phosphokinase activity (see, e.g. FIGS. 6-7). […] Further, where increased kinase phosphorylation is associated with a particular disease state, the kinase activity of particular biological samples can be assessed by contacting a biosensor microarray described herein with the relevant biological sample and detecting phosphorylation of one or more detector polypeptides. Protein kinases are important targets in a number of health condition, e.g., cancer, pulmonary hypertension, diabetes, Alzheimer's, Parkinson's, CNS diseases, macular degeneration, Idiopathic pulmonary fibrosis, systemic sclerosis, rheumatoid disorders, among other diseases, allowing discovery of kinase inhibitor drugs and applying kinase functional screening as disease diagnostics

Src kinase, sequence (P12931 whole entry): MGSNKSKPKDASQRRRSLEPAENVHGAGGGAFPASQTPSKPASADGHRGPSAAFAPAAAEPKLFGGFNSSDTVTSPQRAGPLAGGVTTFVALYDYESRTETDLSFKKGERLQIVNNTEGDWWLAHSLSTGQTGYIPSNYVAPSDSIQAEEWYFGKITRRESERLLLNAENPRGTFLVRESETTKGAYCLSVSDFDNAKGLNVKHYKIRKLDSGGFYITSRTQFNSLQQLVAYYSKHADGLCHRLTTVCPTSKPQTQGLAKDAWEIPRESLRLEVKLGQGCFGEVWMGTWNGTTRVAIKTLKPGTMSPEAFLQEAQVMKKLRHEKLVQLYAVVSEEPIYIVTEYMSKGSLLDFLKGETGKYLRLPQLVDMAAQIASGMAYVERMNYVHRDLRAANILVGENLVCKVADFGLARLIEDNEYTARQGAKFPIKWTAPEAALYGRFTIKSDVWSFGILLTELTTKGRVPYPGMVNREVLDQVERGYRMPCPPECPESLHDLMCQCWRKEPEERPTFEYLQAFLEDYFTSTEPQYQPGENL

Nc1ncnc2c1ncn2[C@@H]1O[C@H](COP(=O)(O)OP(=O)(O)O)[C@@H](O)[C@H]1O [ADP]
FDEC FET sensor response to Src kinase auto-phosphorylation upon addition (addition of ADP instead of ATP): no response

Nc1ncnc2c1ncn2[C@@H]1O[C@H](COP(=O)(O)OP(=O)(O)OP(=O)(O)O)[C@@H](O)[C@H]1O [ATP]
threshold voltage response (FDEC FET response to Src kinase auto-phosphorylation by detecting H+) (upon addition of 10 mM ATP): 200 mV

CN[C@@H]1C[C@H]2O[C@@](C)([C@@H]1OC)n1c3ccccc3c3c4c(c5c6ccccc6n2c5c31)C(=O)NC4 [Staurosporine]
Src kinase inhibition (real time detection of Src kinase autophosphorylation) (2 μM staurosporine, FET-based biosensor microarray): inhibition
